Values quoted from earlier work, collected in patent US6576256B2, “Treatment of patients at elevated cardiovascular risk with a combination of a cholesterol-lowering agent, an inhibitor of the renin-angiotensin system, and aspirin” (priority 2001, dated 2003).

Assays:
[1] = system: patients at risk for cardiovascular events; settings: daily administration of low doses (approximately 80 mg)
blood pressure = settings: relative to angiotensin II

| Compound | reduction of second heart attacks, strokes, and cardiovascular deaths [1] | hypertensive activity as share of that of angiotensin II (blood pressure) |
| --- | --- | --- |
| CC(=O)Oc1ccccc1C(=O)O [aspirin, acetylsalicylic acid] | at least 25% | – |
| angiotensin I (DRVYIHPFHL; Angiotensin-1; UniProt P01019 25-34, looked up) [decapeptide formed by renin acting on angiotensinogen] | – | about 1% |
